Literature values in patent US20130331400A1, “METHOD FOR PRODUCING INDIGO-PLANT LEAF EXTRACT” (SUNSTAR INC.,, priority 2011, published 2013).

Legend:
[1] = test system: fungi of the genus Malassezia; details: reported in PTL 1
[2] = test system: type IV allergic reactions; details: reported in PTL 2
[3] = general statement in background art

## O=C1c2ccccc2-n2c1nc1ccccc1c2=O [tryptanthrin]
[1]
  Antibacterial action against fungi of the genus Malassezia (in words): has an antibacterial action against fungi of the genus Malassezia
[2]
  Effect on type IV allergic reactions (in words): effect of suppressing type IV allergic reactions
[3]
  Light stability of tryptanthrin (in words): poor light stability
